For experiment [1], the target named is T1, TYK2 (Homo sapiens, UniProt P29597). Kind of experiment: HEK-Blue IFNα/β reporter assay (SEAP) for TYK2 pseudokinase inhibition. It is filed as cell-based. The conditions noted are these: HEK-Blue IFNα/β cells, 1 ng/mL human recombinant IFNα. The method in brief:
(§1)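 HEK-Blue cells carrying cytokine receptor and STAT3 or STAT1 SEAP reporter, pretreated 60 min with compound, then stimulated with 10 ng/mL IL-23 (22–24 h) or 1 ng/mL IFNα (16–18 h). SEAP read with QUANTI-Blue; IC50 by non-linear regression versus no-inhibitor and unstimulated controls.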
(In a reporter assay the amount or activity of a reporter protein is the signal.)

Experiment [2] concerns the target T2, TYK2-JH1 (Homo sapiens, UniProt P29597).
T2 construct: recombinant purified His or GST-tagged catalytic domain for each enzyme; made in house
T2 sequence (P29597 897-1176 limits assumed): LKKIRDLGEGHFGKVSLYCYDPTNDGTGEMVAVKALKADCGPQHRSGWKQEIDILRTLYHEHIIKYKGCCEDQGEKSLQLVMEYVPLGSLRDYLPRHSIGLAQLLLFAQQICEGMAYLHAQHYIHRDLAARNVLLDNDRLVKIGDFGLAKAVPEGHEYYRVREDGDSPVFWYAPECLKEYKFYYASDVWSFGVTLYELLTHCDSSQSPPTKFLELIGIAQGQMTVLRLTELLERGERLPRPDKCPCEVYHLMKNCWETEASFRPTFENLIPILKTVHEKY
Kind of experiment: HTRF-based selectivity assay, TYK2 catalytic domain. It is filed as biochemical. The conditions noted are these: kinase domain (JH1), ATP 20 μM. How it is done: (§2) The ability of compounds to inhibit the activity of JAK1, JAK2, JAK3 and TYK2 is measured using a recombinant purified His or GST-tagged catalytic domain for each enzyme (JAK1, JAK2 and TYK2 are generated in-house; JAK3 was purchased from Carna biosciences, Cat #08-046) in an HTRF format biochemical assay. The reactions employs a commercial peptide substrate from Cisbio (Cat #62TK0PEC). The basic assay protocol is as follows: first, 2.5 µL of diluted compounds (4×) in DMSO are dispensed into a 384-well Optiplate. Next, 2.5 μL of enzyme (final concentrations for enzymes are: TYK2-700 ng/mL, JAK1-80.6 ng/mL, JAK2-2.1 ng/mL and JAK3-171.8 ng/mL) is added and incubated at RT for 5-20 min. Finally, 5 μl of mixture of 2×ATP [Final concentration 20 μM for TYK2, 21.43 μM for JAK1, 14.7 μM for JAK2 and 2.12 μM for JAK3]+2× Substrate [Final concentration 217 nM for TYK2, 454.7 nM for JAK1, 200 nM for JAK2 and 257.4 nM for JAK3] is added to 384 well Optiplate. Composition of Kinase assay buffer used in the assay is as follows: HEPES 50 mM, EGTA 1 mM, MgCl2 10 mM, DTT2 mM, Tween-20 0.010 and water. Then the plates are shaken and then incubated at 26.5° C. for 60 min. At the end of the incubation, 10 μL of mixture of 2× detection mix [(EU3+Cryptate (1×)+Streptavidin-XL665 (final concentration: 62.5 nM) (HTRF KinEASE-TK kit Cat #62TK0PEC)] is added to the assay plate, shaken and incubated at 26.5° C. for 60 min. Plates are then read on a Perkin Elmer Envision for HTRF signal (665 nm reading/615 nm reading). After normalization to untreated controls, the percent inhibition of the HTRF signal at each compound concentration is calculated. The plot of percent inhibition versus the log of compound concentration is fit with a 4-parameter dose response equation to calculate IC50 values.

The target of experiment [3] is T3, JAK1-JH1 (Homo sapiens, UniProt P23458).
T3 construct: recombinant purified His or GST-tagged catalytic domain for each enzyme; made in house
Kind of experiment: HTRF-based selectivity assay, JAK1 catalytic domain. In kind it is biochemical. To be noted: kinase domain (JH1), ATP 21.43 μM. The procedure: as §2
(TR-FRET usually uses a lanthanide donor and a delayed reading to cut background.)

The target of experiment [4] is T4, JAK2-JH1 (Homo sapiens, UniProt O60674).
T4 construct: recombinant purified His or GST-tagged catalytic domain for each enzyme; made in house
Kind of experiment: HTRF-based selectivity assay, JAK2 catalytic domain. It is filed as biochemical. To be noted: kinase domain (JH1), ATP 14.7 μM. The procedure: as §2

Experiment [5] concerns the target T5, JAK3-JH1 (Homo sapiens, UniProt P52333).
T5 construct: recombinant purified His or GST-tagged catalytic domain for each enzyme; purchased Carna biosciences 08-046
Kind of experiment: HTRF-based selectivity assay, JAK3 catalytic domain. It is filed as biochemical. To be noted: kinase domain (JH1), ATP 2.12 μM. The procedure:
as §2

In experiment [6] the test system is IL-2. Kind of experiment: Selectivity assay (SEAP) IL-2 reporter cells. In kind it is cell-based. To be noted: Homo sapiens, IL-2 reporter cells on HEK293 background, read-out: Selectivity assays (SEAP) nM or E-Max % IL-2.
Experiment [7] deals with IFN-γ. Kind of experiment: Selectivity assay (SEAP) IFN-γ reporter cells. It is filed as cell-based. The conditions noted are these: Homo sapiens, IFN-γ reporter cells on HEK293 background, read-out: Selectivity assays (SEAP) nM or E-Max % IFN-γ.
Experiment [8] addresses T1, TYK2. Kind of experiment: HEK-Blue IL-23 reporter assay (SEAP) for TYK2 pseudokinase inhibition. In kind it is cell-based. More on the design: HEK-Blue™ IL-23 and IFNα/β cells with a stably-integrated cytokine receptor and STAT3 or STAT1; host or cells: HEK-Blue IL-23 / HEK-Blue IFNα/β cells (HEK293 background). The conditions noted are these: HEK-Blue IL-23 cells, 10 ng/mL human recombinant IL-23, SEAP reporter; read-out: IL23 IC50. The method in brief: as §1

T3 sequence (P23458 875-1153 limits assumed): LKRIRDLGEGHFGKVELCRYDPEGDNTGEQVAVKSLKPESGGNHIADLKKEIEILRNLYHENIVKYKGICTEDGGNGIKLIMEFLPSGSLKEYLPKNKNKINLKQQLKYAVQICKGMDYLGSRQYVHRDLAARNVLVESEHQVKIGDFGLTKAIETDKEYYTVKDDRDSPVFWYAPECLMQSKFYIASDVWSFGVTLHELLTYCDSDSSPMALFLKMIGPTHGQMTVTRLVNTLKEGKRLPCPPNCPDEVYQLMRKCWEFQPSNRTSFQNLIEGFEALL
T4 sequence (O60674 849-1124 limits assumed): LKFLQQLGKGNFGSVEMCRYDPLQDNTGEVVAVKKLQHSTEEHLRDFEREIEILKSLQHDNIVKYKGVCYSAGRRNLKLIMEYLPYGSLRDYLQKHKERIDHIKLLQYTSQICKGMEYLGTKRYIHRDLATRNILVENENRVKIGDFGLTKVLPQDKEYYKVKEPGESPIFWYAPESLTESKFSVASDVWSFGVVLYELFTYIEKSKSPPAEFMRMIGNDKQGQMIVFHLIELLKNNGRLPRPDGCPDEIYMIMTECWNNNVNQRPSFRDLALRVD
T1 sequence (P29597 whole entry): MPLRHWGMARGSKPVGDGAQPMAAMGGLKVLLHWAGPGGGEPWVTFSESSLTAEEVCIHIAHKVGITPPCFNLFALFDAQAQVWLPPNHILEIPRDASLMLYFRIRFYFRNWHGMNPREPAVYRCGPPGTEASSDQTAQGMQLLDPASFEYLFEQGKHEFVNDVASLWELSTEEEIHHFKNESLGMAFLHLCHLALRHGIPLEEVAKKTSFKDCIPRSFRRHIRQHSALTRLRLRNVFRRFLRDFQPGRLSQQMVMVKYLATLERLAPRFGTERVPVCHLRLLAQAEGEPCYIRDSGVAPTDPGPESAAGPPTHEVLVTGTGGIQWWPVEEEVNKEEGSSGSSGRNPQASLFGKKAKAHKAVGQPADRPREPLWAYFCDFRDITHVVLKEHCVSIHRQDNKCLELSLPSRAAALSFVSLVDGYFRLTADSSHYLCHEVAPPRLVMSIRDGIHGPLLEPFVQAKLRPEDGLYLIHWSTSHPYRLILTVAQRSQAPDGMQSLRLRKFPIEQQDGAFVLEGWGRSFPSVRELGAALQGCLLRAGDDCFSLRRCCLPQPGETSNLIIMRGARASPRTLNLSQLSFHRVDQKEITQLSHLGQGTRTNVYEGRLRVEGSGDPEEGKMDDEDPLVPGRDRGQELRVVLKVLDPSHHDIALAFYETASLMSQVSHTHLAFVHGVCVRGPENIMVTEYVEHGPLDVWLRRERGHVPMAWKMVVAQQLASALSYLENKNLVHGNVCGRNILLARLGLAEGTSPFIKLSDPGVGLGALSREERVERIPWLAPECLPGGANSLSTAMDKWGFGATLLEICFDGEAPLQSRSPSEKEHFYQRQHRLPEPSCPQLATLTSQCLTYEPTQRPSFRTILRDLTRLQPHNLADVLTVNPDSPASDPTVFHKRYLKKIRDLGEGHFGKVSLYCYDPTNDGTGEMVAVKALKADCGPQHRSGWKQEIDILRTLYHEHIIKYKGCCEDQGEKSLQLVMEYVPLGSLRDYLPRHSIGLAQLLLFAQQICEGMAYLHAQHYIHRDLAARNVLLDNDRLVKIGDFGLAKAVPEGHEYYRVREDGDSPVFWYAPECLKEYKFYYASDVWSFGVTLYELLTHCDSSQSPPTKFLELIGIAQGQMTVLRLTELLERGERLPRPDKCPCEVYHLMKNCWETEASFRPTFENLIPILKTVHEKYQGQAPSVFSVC
T5 sequence (P52333 822-1111 limits assumed): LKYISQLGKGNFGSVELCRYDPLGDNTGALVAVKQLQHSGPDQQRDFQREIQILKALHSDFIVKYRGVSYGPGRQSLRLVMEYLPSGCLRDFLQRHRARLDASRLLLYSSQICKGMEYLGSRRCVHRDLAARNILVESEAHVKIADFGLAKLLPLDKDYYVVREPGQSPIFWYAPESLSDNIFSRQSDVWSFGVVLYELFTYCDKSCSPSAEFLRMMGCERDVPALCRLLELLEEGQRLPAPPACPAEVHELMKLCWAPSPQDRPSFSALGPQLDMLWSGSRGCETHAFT

In the case of `COc1cccc(-n2[nH]c(=O)c3cnc(Nc4ccnc(C)n4)cc32)c1` [Compound I-49, 1-(3-methoxyphenyl)-6-((2-methylpyrimidin-4-yl)amino)-1,2-dihydro-3H-pyrazolo[4,3-c]pyridin-3-one], the IC50 in experiment [1] is under 10 µM; in experiment [2], over 90 µM; in experiment [3], over 90 µM; in experiment [4] it was over 90 µM; in experiment [5], over 90 µM; in experiment [6] it was over 90000 nM. In addition, the IC50 in experiment [7] was over 90000 nM; in experiment [8], under 10 µM.

With `Cc1cc(Nc2cc3c(cn2)c(=O)[nH]n3-c2cccc(F)c2)nc(C)n1` [Compound I-59, 6-((2,6-dimethylpyrimidin-4-yl)amino)-1-(3-fluorophenyl)-1,2-dihydro-3H-pyrazolo[4,3-c]pyridin-3-one], the IC50 was under 10 µM in experiment [1]; over 90 µM in experiment [2]; over 90 µM in experiment [3]; over 90 µM in experiment [4]; over 90 µM in experiment [5]; over 90000 nM in experiment [6]. The IC50 in experiment [7] is over 90000 nM; in experiment [8], under 10 µM.

`Cc1cc(Nc2cc3c(cn2)c(=O)[nH]n3-c2ccc(Cl)cc2)nc(C)n1` [Compound I-65, 1-(4-chlorophenyl)-6-((2,6-dimethylpyrimidin-4-yl)amino)-1,2-dihydro-3H-pyrazolo[4,3-c]pyridin-3-one]: the IC50 in experiment [1] is over 90 µM; in experiment [2], over 90 µM; in experiment [3], over 90 µM; in experiment [4], over 90 µM; in experiment [5], over 90 µM; in experiment [6], over 90000 nM. Further, the results for the IC50 in experiment [7] and in experiment [8] were over 90000 nM and under 10 µM, respectively.

`Cc1cc(Nc2cc3c(cn2)c(=O)[nH]n3-c2ccc(OC(F)(F)F)cc2)nc(C)n1` [Compound I-69, 6-((2,6-dimethylpyrimidin-4-yl)amino)-1-(4-(trifluoromethoxy)phenyl)-1,2-dihydro-3H-pyrazolo[4,3-c]pyridin-3-one]: the IC50 in experiment [1] was under 10 µM; in experiment [2], over 90 µM; in experiment [3] it was over 90 µM; in experiment [4], over 90 µM; in experiment [5], over 90 µM; in experiment [6] it was over 90000 nM. Further, the results for the IC50 in experiment [7] and in experiment [8] were over 90000 nM and under 10 µM, respectively.

As to `Cc1cc(Nc2cc3c(cn2)c(=O)[nH]n3-c2ccc(OC(F)F)cc2)nc(C)n1` [Compound I-72, 1-(4-(difluoromethoxy)phenyl)-6-((2,6-dimethylpyrimidin-4-yl)amino)-1,2-dihydro-3H-pyrazolo[4,3-c]pyridin-3-one], the IC50 in experiment [1] is under 10 µM; in experiment [2] it was over 90 µM; in experiment [3], over 90 µM; in experiment [4], over 90 µM; in experiment [5], over 90 µM; in experiment [6], over 90000 nM. The IC50 in experiment [7] was over 90000 nM; in experiment [8] it was under 10 µM.

Take `Cc1cc(Nc2cc3c(cn2)c(=O)[nH]n3-c2ccc(OCC(F)(F)F)cc2)nc(C)n1` [Compound I-73, 6-((2,6-dimethylpyrimidin-4-yl)amino)-1-(4-(2,2,2-trifluoroethoxy)phenyl)-1,2-dihydro-3H-pyrazolo[4,3-c]pyridin-3-one]: the IC50 in experiment [1] is under 10 µM; in experiment [2], over 90 µM; in experiment [3], over 90 µM; in experiment [4], over 90 µM; in experiment [5], over 90 µM; in experiment [6] it was over 90000 nM. Moreover, the IC50 in experiment [7] is over 90000 nM; in experiment [8], under 10 µM.

Regarding `N#Cc1ccc(-n2[nH]c(=O)c3cnc(Nc4ccc(F)cn4)cc32)cc1Cl` [Compound I-88, 2-chloro-4-(6-((5-fluoropyridin-2-yl)amino)-3-oxo-2,3-dihydro-1H-pyrazolo[4,3-c]pyridin-1-yl)benzonitrile], the IC50 is under 10 µM in experiment [1]; over 90 µM in experiment [2]; over 90 µM in experiment [3]; over 90 µM in experiment [4]; over 90 µM in experiment [5]; over 90000 nM in experiment [6]. Besides, the IC50 is over 90000 nM in experiment [7] and under 10 µM in experiment [8].

Turning to `Cc1cc(Nc2cc3c(cn2)c(=O)[nH]n3-c2ccc(OC(F)(F)F)c(F)c2)nc(C)n1` [Compound I-94, 6-((2,6-dimethylpyrimidin-4-yl)amino)-1-(3-fluoro-4-(trifluoromethoxy)phenyl)-1,2-dihydro-3H-pyrazolo[4,3-c]pyridin-3-one], the IC50 in experiment [1] was under 10 µM; in experiment [2], over 90 µM; in experiment [3], over 90 µM; in experiment [4], over 90 µM; in experiment [5] it was over 90 µM; in experiment [6], over 90000 nM. Moreover, the IC50 in experiment [7] was over 90000 nM; in experiment [8], under 10 µM.

Consider `O=c1[nH]n(-c2ccc(OC(F)(F)F)c(F)c2)c2cc(Nc3ccc(F)cn3)ncc12` [Compound I-95, 1-(3-fluoro-4-(trifluoromethoxy)phenyl)-6-((5-fluoropyridin-2-yl)amino)-1,2-dihydro-3H-pyrazolo[4,3-c]pyridin-3-one], for which the IC50 in experiment [1] was under 10 µM; in experiment [2], over 90 µM; in experiment [3] it was over 90 µM; in experiment [4], over 90 µM; in experiment [5] it was over 90 µM; in experiment [6] it was over 90000 nM. Also, the IC50 in experiment [7] was over 90000 nM; in experiment [8] it was under 10 µM.
